Test results taken from patent publication US6914045B2, “Glycopeptide antibiotics” (Wyeth Holdings Corporation, priority 2001, dated 2005).
≈ marks a conversion by molar mass, not a printed value. Like-named read-outs stand apart in the source and are kept apart here.

How the values were obtained:
Experiment in all cases: in vitro antibacterial evaluation, MIC by broth dilution
Type in all cases: cell-based
Enterococcus sp. = test system: Enterococcus sp.
Method in brief: (§1)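 Step 1: dilute antibiotic across 64-0.06 μg/mL in Muller-Hinton II […]. Step 2: inoculate at 5×10^5 CFU/mL.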

Staphylococcus sp. = test system: Staphylococcus sp.
Method in brief: as §1

Streptococcus sp. = test system: Streptococcus sp.
Method in brief: as §1

Escherichia coli = test system: Escherichia coli
Method in brief: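 MIC is the lowest antibiotic concentration (tested 64-0.06 μg/mL) preventing growth of a 5×10^5 CFU/mL inoculum. Determined by broth dilution in Mueller-Hinton II medium following NCCLS standard M7-A2.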

[1] = broth dilution, 18 hours at 35° C.

## CC(c1ccccc1)C1NC(=O)CNC(=O)C(CO)NC(=O)C(C(O)C2CNC(=N)N2C2OC(CO)C(O)C(O)C2O)NC(=O)C(C(O)C2CNC(=N)N2)NC(=O)C(Cc2ccc3oc(-c4ccc(-c5ccccc5)cc4)nc3c2)NC1=O (stereo not drawn) [Example 33, Cyclo[3-[2-([1,1-biphenyl]-4-yl)-1,3-benzoxazol-5-yl]alanyl-3-(2-iminoimidazolidin-4-yl)-seryl-3-(3-hexopyranosyl-2-iminoimidazolidin-4-yl)serylserylglycyl-β-methylphenylalanyl]]
Enterococcus sp.
  MIC Enterococcus avium (GC 4558): 8 µg/mL (≈ 6.97 µM)
  MIC Enterococcus faecalis (ATCC 29212): 32 µg/mL (≈ 27.9 µM)
  MIC Enterococcus faecalis (GC 2242): 16 µg/mL (≈ 13.9 µM)
  MIC Enterococcus faecalis (GC 2691): 16 µg/mL (≈ 13.9 µM)
  MIC Enterococcus faecalis (GC 3059): 32 µg/mL (≈ 27.9 µM)
  MIC Enterococcus faecalis (GC 4552): 16 µg/mL (≈ 13.9 µM)
  MIC Enterococcus faecalis (GC 4553): 16 µg/mL (≈ 13.9 µM)
  MIC Enterococcus faecalis (GC 4554): 16 µg/mL (≈ 13.9 µM)
  MIC Enterococcus faecalis (GC 6189): 16 µg/mL (≈ 13.9 µM)
  MIC Enterococcus faecium (GC 2243): 8 µg/mL (≈ 6.97 µM)
  MIC Enterococcus faecium (GC 4556): 64 µg/mL (≈ 55.7 µM)
  MIC Enterococcus faecium (GC 4557): 4 µg/mL (≈ 3.48 µM)
Staphylococcus sp.
  MIC Coagulase Negative Staphylococcus (GC 4547): 4 µg/mL (≈ 3.48 µM)
  MIC Coagulase Negative Staphylococcus (GC 4548): 4 µg/mL (≈ 3.48 µM)
  MIC Coagulase Negative Staphylococcus (GC 4549): 1 µg/mL (≈ 0.871 µM)
  MIC Coagulase Negative Staphylococcus (GC 4551): 8 µg/mL (≈ 6.97 µM)
  MIC Coagulase Negative Staphylococcus (GC 6257): 4 µg/mL (≈ 3.48 µM)
  MIC Staphylococcus aureus (ATCC 29213): 8 µg/mL (≈ 6.97 µM)
  MIC Staphylococcus aureus (GC 1131): 4 µg/mL (≈ 3.48 µM)
  MIC Staphylococcus aureus (GC 3051): 16 µg/mL (≈ 13.9 µM)
  MIC Staphylococcus aureus (GC 3053): 8 µg/mL (≈ 6.97 µM)
  MIC Staphylococcus aureus (GC 4541): 8 µg/mL (≈ 6.97 µM)
  MIC Staphylococcus aureus (GC 4542): 8 µg/mL (≈ 6.97 µM)
  MIC Staphylococcus aureus (GC 4544): 4 µg/mL (≈ 3.48 µM)
  MIC Staphylococcus aureus (GC 4545): 8 µg/mL (≈ 6.97 µM)
  MIC Staphylococcus aureus-SMITH (GC 4543): 4 µg/mL (≈ 3.48 µM)
  MIC Staphylococcus haemolyticus (GC 4546): 4 µg/mL (≈ 3.48 µM)
Streptococcus sp.
  MIC Streptococcus agalactiae (GC 4564): 32 µg/mL (≈ 27.9 µM)
  MIC Streptococcus pneumoniae (ATCC 6301): 32 µg/mL (≈ 27.9 µM)
  MIC Streptococcus pneumoniae (GC 1894): 32 µg/mL (≈ 27.9 µM)
  MIC Streptococcus pneumoniae (GC 4565): 64 µg/mL (≈ 55.7 µM)
  MIC Streptococcus pyogenes (GC 4563): 16 µg/mL (≈ 13.9 µM)
Escherichia coli
  MIC Escherichia coli (ATCC 25922): 64 µg/mL (≈ 55.7 µM)
  MIC Escherichia coli (GC 4559): 64 µg/mL (≈ 55.7 µM)
  MIC Escherichia coli (GC 4560): 16 µg/mL (≈ 13.9 µM)

## CCCCCCN=C1NCC(C(O)C2NC(=O)C(C(O)C3CNC(=N)N3)NC(=O)C(Cc3ccc(OC4OC(CO)C(OC5OC6COC7(OC6C(O)C5O)C5CC6CC(C5)CC7C6)C(O)C4O)cc3)NC(=O)C(C(C)c3ccccc3)NC(=O)CNC(=O)C(CO)NC2=O)N1C1OC(CO)C(O)C(O)C1O (stereo not shown) [Example 84]
Enterococcus sp.; Enterococcus avium (GC 4558), broth dilution, 18 hours at 35° C.
  MIC Enterococcus avium (GC 4558): 8 µg/mL (≈ 5.29 µM)
Enterococcus sp.; Enterococcus faecalis (ATCC 29212), broth dilution, 18 hours at 35° C.
  MIC Enterococcus faecalis (ATCC 29212): 8 µg/mL (≈ 5.29 µM)
Enterococcus sp.; Enterococcus faecalis (GC 4552), broth dilution, 18 hours at 35° C.
  MIC Enterococcus faecalis (GC 4552): 8 µg/mL (≈ 5.29 µM)
Enterococcus sp.; Enterococcus faecalis (GC 4553), broth dilution, 18 hours at 35° C.
  MIC Enterococcus faecalis (GC 4553): 8 µg/mL (≈ 5.29 µM)
Enterococcus sp.; Enterococcus faecalis (GC 4554), broth dilution, 18 hours at 35° C.
  MIC Enterococcus faecalis (GC 4554): 16 µg/mL (≈ 10.6 µM)
Enterococcus sp.; Enterococcus faecalis (GC 6189), broth dilution, 18 hours at 35° C.
  MIC Enterococcus faecalis (GC 6189): 8 µg/mL (≈ 5.29 µM)
Enterococcus sp.; Enterococcus faecium (GC 2243), broth dilution, 18 hours at 35° C.
  MIC Enterococcus faecium (GC 2243): 4 µg/mL (≈ 2.65 µM)
Enterococcus sp.; Enterococcus faecium (GC 4556), broth dilution, 18 hours at 35° C.
  MIC Enterococcus faecium (GC 4556): 8 µg/mL (≈ 5.29 µM)
Enterococcus sp.; Enterococcus faecium (GC 4557), broth dilution, 18 hours at 35° C.
  MIC Enterococcus faecium (GC 4557): 1 µg/mL (≈ 0.662 µM)
Enterococcus sp.; [1]
  MIC Enterococcus avium (GC 4558): 8 µg/mL (≈ 5.29 µM)
  MIC Enterococcus faecalis (ATCC 29212): 8 µg/mL (≈ 5.29 µM)
  MIC Enterococcus faecalis (GC 2242): 8 µg/mL (≈ 5.29 µM)
  MIC Enterococcus faecalis (GC 2691): 8 µg/mL (≈ 5.29 µM)
  MIC Enterococcus faecalis (GC 3059): 8 µg/mL (≈ 5.29 µM)
  MIC Enterococcus faecalis (GC 4552): 8 µg/mL (≈ 5.29 µM)
  MIC Enterococcus faecalis (GC 4553): 8 µg/mL (≈ 5.29 µM)
  MIC Enterococcus faecalis (GC 4554): 16 µg/mL (≈ 10.6 µM)
  MIC Enterococcus faecalis (GC 6189): 8 µg/mL (≈ 5.29 µM)
  MIC Enterococcus faecium (GC 2243): 4 µg/mL (≈ 2.65 µM)
  MIC Enterococcus faecium (GC 4556): 8 µg/mL (≈ 5.29 µM)
  MIC Enterococcus faecium (GC 4557): 1 µg/mL (≈ 0.662 µM)
Enterococcus sp.; broth dilution, 18 hours at 35° C., strain GC 2242
  MIC Enterococcus faecalis (GC 2242): 8 µg/mL (≈ 5.29 µM)
Enterococcus sp.; broth dilution, 18 hours at 35° C., strain GC 2691
  MIC Enterococcus faecalis (GC 2691): 8 µg/mL (≈ 5.29 µM)
Enterococcus sp.; broth dilution, 18 hours at 35° C., strain GC 3059
  MIC Enterococcus faecalis (GC 3059): 8 µg/mL (≈ 5.29 µM)
Staphylococcus sp.; [1]
  MIC Coagulase Negative Staphylococcus (GC 4547): 4 µg/mL (≈ 2.65 µM)
  MIC Coagulase Negative Staphylococcus (GC 4548): 4 µg/mL (≈ 2.65 µM)
  MIC Coagulase Negative Staphylococcus (GC 4549): 4 µg/mL (≈ 2.65 µM)
  MIC Coagulase Negative Staphylococcus (GC 4551): 4 µg/mL (≈ 2.65 µM)
  MIC Coagulase Negative Staphylococcus (GC 6257): 2 µg/mL (≈ 1.32 µM)
  MIC Staphylococcus aureus-SMITH (GC 4543): 4 µg/mL (≈ 2.65 µM)
  MIC Staphylococcus haemolyticus (GC 4546): 4 µg/mL (≈ 2.65 µM)
Staphylococcus sp.; strain ATCC 29213, broth dilution, 18 hours at 35° C.
  MIC Staphylococcus aureus (ATCC 29213): 8 µg/mL (≈ 5.29 µM)
Staphylococcus sp.; strain GC 1131, broth dilution, 18 hours at 35° C.
  MIC Staphylococcus aureus (GC 1131): 8 µg/mL (≈ 5.29 µM)
Staphylococcus sp.; strain GC 3051, broth dilution, 18 hours at 35° C.
  MIC Staphylococcus aureus (GC 3051): 8 µg/mL (≈ 5.29 µM)
Staphylococcus sp.; strain GC 3053, broth dilution, 18 hours at 35° C.
  MIC Staphylococcus aureus (GC 3053): 8 µg/mL (≈ 5.29 µM)
Staphylococcus sp.; strain GC 4541, broth dilution, 18 hours at 35° C.
  MIC Staphylococcus aureus (GC 4541): 4 µg/mL (≈ 2.65 µM)
Staphylococcus sp.; strain GC 4542, broth dilution, 18 hours at 35° C.
  MIC Staphylococcus aureus (GC 4542): 8 µg/mL (≈ 5.29 µM)
Staphylococcus sp.; strain GC 4543, broth dilution, 18 hours at 35° C.
  MIC Staphylococcus aureus-SMITH (GC 4543): 4 µg/mL (≈ 2.65 µM)
Staphylococcus sp.; strain GC 4544, broth dilution, 18 hours at 35° C.
  MIC Staphylococcus aureus (GC 4544): 8 µg/mL (≈ 5.29 µM)
Staphylococcus sp.; strain GC 4545, broth dilution, 18 hours at 35° C.
  MIC Staphylococcus aureus (GC 4545): 8 µg/mL (≈ 5.29 µM)
Staphylococcus sp.; strain GC 4546, broth dilution, 18 hours at 35° C.
  MIC Staphylococcus haemolyticus (GC 4546): 4 µg/mL (≈ 2.65 µM)
Staphylococcus sp.; strain GC 4547, broth dilution, 18 hours at 35° C.
  MIC Coagulase Negative Staphylococcus (GC 4547): 4 µg/mL (≈ 2.65 µM)
Staphylococcus sp.; strain GC 4548, broth dilution, 18 hours at 35° C.
  MIC Coagulase Negative Staphylococcus (GC 4548): 4 µg/mL (≈ 2.65 µM)
Staphylococcus sp.; strain GC 4549, broth dilution, 18 hours at 35° C.
  MIC Coagulase Negative Staphylococcus (GC 4549): 4 µg/mL (≈ 2.65 µM)
Staphylococcus sp.; strain GC 4551, broth dilution, 18 hours at 35° C.
  MIC Coagulase Negative Staphylococcus (GC 4551): 4 µg/mL (≈ 2.65 µM)
Staphylococcus sp.; strain GC 6257, broth dilution, 18 hours at 35° C.
  MIC Coagulase Negative Staphylococcus (GC 6257): 2 µg/mL (≈ 1.32 µM)
Streptococcus sp.; [1]
  MIC Streptococcus agalactiae (GC 4564): 1 µg/mL (≈ 0.662 µM)
  MIC Streptococcus pneumoniae (ATCC 6301): 1 µg/mL (≈ 0.662 µM)
  MIC Streptococcus pneumoniae (GC 1894): 0.12 µg/mL (≈ 0.0794 µM)
  MIC Streptococcus pneumoniae (GC 4565): 1 µg/mL (≈ 0.662 µM)
  MIC Streptococcus pyogenes (GC 4563): 0.5 µg/mL (≈ 0.331 µM)
Streptococcus sp.; broth dilution, 18 hours at 35° C., strain ATCC 6301
  MIC Streptococcus pneumoniae (ATCC 6301): 1 µg/mL (≈ 0.662 µM)
Streptococcus sp.; broth dilution, 18 hours at 35° C., strain GC 1894
  MIC Streptococcus pneumoniae (GC 1894): 0.12 µg/mL (≈ 0.0794 µM)
Streptococcus sp.; broth dilution, 18 hours at 35° C., strain GC 4563
  MIC Streptococcus pyogenes (GC 4563): 0.5 µg/mL (≈ 0.331 µM)
Streptococcus sp.; broth dilution, 18 hours at 35° C., strain GC 4564
  MIC Streptococcus agalactiae (GC 4564): 1 µg/mL (≈ 0.662 µM)
Streptococcus sp.; broth dilution, 18 hours at 35° C., strain GC 4565
  MIC Streptococcus pneumoniae (GC 4565): 1 µg/mL (≈ 0.662 µM)
Escherichia coli; 18 hours at 35° C.
  MIC Escherichia coli (ATCC 25922): >64 µg/mL
  MIC Escherichia coli (GC 4559): 64 µg/mL (≈ 42.3 µM)
  MIC Escherichia coli (GC 4560): 4 µg/mL (≈ 2.65 µM)
